PubChem BioAssay AID449750 (Broad Institute, 2010)
The source made the active and inactive calls. No rule for the calls is given here.

Assay: non-covalent RecA intein splicing inhibitors, dose response, biochemical, cell-free, fluorescence, secondary screen (AID 449750)
For COc1nc(NC(C)C)nc(N(C#N)CN2C(=O)c3ccccc3S2(=O)=O)n1, the AC50 was > 38 µM (inactive).
In the case of CCOc1cc(C2C(C#N)=C(N)Oc3n[nH]c(CC)c32)ccc1OCCN1CCOCC1 (stereo not drawn), the AC50 is reported as > 38 µM (inactive).
In the case of NC(=O)C1CCN(C2=C(Cl)C(=O)c3ccccc3C2=O)CC1, the AC50 is reported as 1.97 µM.
In the case of CC(C)(C)c1cc(C(c2cccnc2)N2CCN(CCO)CC2)cc(C(C)(C)C)c1O (stereo not drawn), the AC50 is reported as 17.7 µM.
With COC(=O)C1CN(C#N)N(c2ccc(Cl)cc2)C12c1ccccc1-c1ccccc12 (stereo not drawn) the AC50 was 10.7 µM.
For Cc1[nH][nH]c(=O)c1C(c1ccc(-c2ccc(Cl)c(Cl)c2)o1)c1c(C)[nH][nH]c1=O, the AC50 was 3.11 µM.
For CC1=C(C)/C(=N\OS(=O)(=O)c2ccccc2)C=CC1=O, the AC50 was > 38 µM (inactive).
CC(c1ccc(O)cc1)(c1ccc(O)cc1)c1ccc(CCBr)cc1 showed an AC50 of 11.8 µM.
Molecule Cc1[nH][nH]c(=O)c1C(c1ccc(F)cc1)c1c(C)[nH][nH]c1=O has an AC50 of 11.9 µM.
Cc1ccc(S(=O)(=O)Nc2c(O)ccc3ccccc23)cc1 showed an AC50 of 8.05 µM.
In the case of CCOc1ccccc1CNc1ccc(O)cc1, the AC50 is reported as 37.6 µM.
In the case of O=C1c2ccccc2-c2onc3ccc(N4CCCC4)c1c23, the AC50 is reported as > 38 µM (inactive).
With CC1=NN(c2ccc(Cl)cc2)C(=O)C1C(c1cccc(O)c1)c1c(C)[nH]n(-c2ccc(Cl)cc2)c1=O (stereo not drawn) the AC50 was 7.91 µM.
With CC(=O)NCCn1c(SCC(=O)NCc2ccco2)nc2ccccc2c1=O the AC50 was > 38 µM (inactive).
In the case of COCc1[nH]nc2c1C(c1cccc(OC)c1)C(C#N)=C(N)O2 (stereo not drawn), the AC50 is reported as > 38 µM (inactive).
With O=C(CCl)c1ccc2c(c1)CCN2C(=O)C1CCCCC1 the AC50 was > 38 µM (inactive).
With O=C1C(Cl)=C(N2CCOCC2)C(=O)N1c1cccc(C(F)(F)F)c1 the AC50 was > 38 µM (inactive).
In the case of COc1cccc(-c2cc(=O)[nH][nH]2)c1, the AC50 is reported as 13.9 µM.
With CCS(=O)(=O)C1=NN2C(=N)/C(=C\c3ccc(OC(=O)c4ccco4)cc3)C(=O)N=C2S1 the AC50 was > 38 µM (inactive).
In the case of COc1ccc(-c2nnc(SC(=O)N3c4ccccc4Sc4ccccc43)o2)cc1, the AC50 is reported as 4.86 µM.
Work on CCOC(=O)c1c(CSC(=N)N)n(-c2ccc(C)cc2)c2cc(Br)c(OC(C)=O)cc12 yielded an AC50 of 8.36 µM.
O=Cc1ccc(Sc2nnc(-c3ccccc3)o2)c([N+](=O)[O-])c1 showed an AC50 of 21 µM.
For O=[N+]([O-])c1ccc2nc(Cl)nc(-c3ccccc3)c2c1, the AC50 was > 38 µM (inactive).
With Cc1cccc(Cn2nnc3c2C(=O)c2ccccc2C3=O)c1 the AC50 was 28.7 µM.
Molecule O=C(CCl)N1CCN(S(=O)(=O)c2ccc3ccccc3c2)CC1 has an AC50 of 6.51 µM.
With O=c1c(Cl)c(NCCCO)cnn1-c1nc2ccccc2[nH]1 the AC50 was > 38 µM (inactive).
Cn1ncnc2c(=O)n(C)c(=O)nc1-2 showed an AC50 of 0.0837 µM.
For CC1=NN(c2ccc(C)cc2C)C(=O)C1C(c1ccccc1)C1C(=O)N(c2ccc(C)cc2C)N=C1C (stereo not drawn), the AC50 was 3.04 µM.
NS(=O)(=O)c1ccc(N=Nc2ccc(=O)[nH]c2O)cc1 gave an AC50 of 24.6 µM.
For Cc1cccc(S(=O)(=O)C(C#N)c2nc3ccccc3nc2N2CCCC2)c1 (stereo not drawn), the AC50 was > 38 µM (inactive).
With O=C(CCl)Nc1cccc(-c2cnc3ccccc3n2)c1 the AC50 was 16.5 µM.
With Cn1cnc([N+](=O)[O-])c1S(=O)(=O)c1ccc(Cl)cc1 the AC50 was > 38 µM (inactive).
In the case of COC(=O)c1sc(N)c(C(=O)OC)c1Cn1ncc(Cl)c(Cl)c1=O, the AC50 is reported as > 38 µM (inactive).
With O=[N+]([O-])c1cc(-c2ccc(C(=S)N3CCOCC3)o2)ccc1Cl the AC50 was 18.4 µM.
Molecule CCN(CC)CCN1C(=O)C(O)=C(C(C)=O)C1c1ccccc1[N+](=O)[O-] (stereo not drawn) has an AC50 of 37.7 µM.
With O=[N+]([O-])c1cc([N+](=O)[O-])c2c(=Nc3ccccc3)n(-c3ccccc3)n(O)c2c1 the AC50 was 21.7 µM.
CCOC(=O)CC1=NN(c2ccccc2)C(=O)/C1=C\c1ccc(OC)cc1OC showed an AC50 of 2.34 µM.
In the case of CCNC(=O)c1ccccc1-c1nc(-c2ccccc2)no1, the AC50 is reported as > 38 µM (inactive).
With CCOC(=O)c1c(NC(=O)CSc2nnc(-c3c[nH]c4ccccc34)n2CCOC)sc2c1CCCC2 the AC50 was > 38 µM (inactive).
With CS(=O)(=O)c1nc(-c2ccco2)cc(C(F)(F)F)n1 the AC50 was > 38 µM (inactive).
With O=C(CCS(=O)NCc1ccccc1)NCc1ccccc1 (stereo not drawn) the AC50 was > 38 µM (inactive).
In the case of CN1CCN(C(c2ccc(C(F)(F)F)cc2)c2cc(Cl)c3cccnc3c2O)CC1 (stereo not drawn), the AC50 is reported as > 38 µM (inactive).
CCOC(=O)CC1=NN(c2ccccc2)C(=O)C1 gave an AC50 of 36 µM.
With Cn1cnc([N+](=O)[O-])c1S(=O)(=O)c1cccc(Cl)c1 the AC50 was 30 µM.
For CCOc1ccc(C2C(C#N)=C(N)Oc3n[nH]c(C)c32)cc1OC(=O)C1CC1 (stereo not drawn), the AC50 was > 38 µM (inactive).
CCC(CNc1cc(OC)cc2cccnc12)NC1CCCCC1 (stereo not drawn) showed an AC50 of 6.86 µM.
With NC(=O)c1c(-c2cccs2)csc1N the AC50 was > 38 µM (inactive).
In the case of CC1(C)CC(=O)C(C2(O)C(=O)NC(=O)NC2=O)=C(O)C1, the AC50 is reported as 1.79 µM.
In the case of Cc1cc(F)ccc1S(=O)(=O)N(C(=O)c1ccncc1)c1ccc(OC(=O)c2ccncc2)cc1, the AC50 is reported as > 38 µM (inactive).
With N#Cc1c(N2CCCCC2)nc(N)c2c(N)nc(SCC(=O)O)cc12 the AC50 was > 38 µM (inactive).
For COc1ccc(N/C=C2\CCc3ccccc3C2=O)cc1, the AC50 was > 38 µM (inactive).
For CCC(=O)Oc1ccc(C(=O)Nc2cccc(C(=O)c3ccccc3)c2)cc1, the AC50 was 32.8 µM.
In the case of CCN(CC)CCOc1ccc(/C(=C(/Cl)c2ccccc2)c2ccccc2)cc1, the AC50 is reported as 9.31 µM.
